From PubChem BioAssay AID256 (DTP/NCI, 2004)
“And” between values parts separate entries of the source, which are not always exact repeats. Equal entries are not always repeated. Inconclusive results and toxic doses are left out. Rule for the calls: active = survival T/C of 150% or more; inactive = T/C below 125% in these data.

Test system: CD2F1 mice, L1210 leukemia ip, survival T/C
Experiment: NCI In Vivo Anticancer Drug Screen. Data for tumor model L1210 Leukemia (intraperitoneal) in CD2F1 (CDF1) mice
Settings: higher = longer survival
Method in brief: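 Implant tumor; dose compound or vehicle; measure endpoint in both groups; report treated divided by control.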

[1] = endpoint: mean survival time, dose: 50.0 mg/kg/injection, schedule: Q01DX009 (ip), vehicle: saline with Tween-80
[2] = endpoint: mean survival time, dose: 100.0 mg/kg/injection, schedule: Q01DX009 (ip), vehicle: saline with Tween-80
[3] = endpoint: mean survival time, dose: 200.0 mg/kg/injection, schedule: Q01DX009 (ip), vehicle: saline with Tween-80
[4] = endpoint: mean survival time, dose: 75.0 mg/kg/injection, schedule: Q01DX001 (ip), vehicle: saline
[5] = endpoint: mean survival time, dose: 400.0 mg/kg/injection, schedule: Q01DX009 (ip), vehicle: saline with Tween-80
[6] = endpoint: mean survival time, dose: 100.0 mg/kg/injection, schedule: Q01DX001 (ip), vehicle: saline with Tween-80
[7] = endpoint: mean survival time, dose: 200.0 mg/kg/injection, schedule: Q01DX001 (ip), vehicle: saline with Tween-80
[8] = endpoint: mean survival time, dose: 400.0 mg/kg/injection, schedule: Q01DX001 (ip), vehicle: saline with Tween-80
[9] = endpoint: mean survival time, dose: 100.0 mg/kg/injection, schedule: Q04DX003 (ip), vehicle: saline with Tween-80
[10] = endpoint: mean survival time, dose: 200.0 mg/kg/injection, schedule: Q04DX003 (ip), vehicle: saline with Tween-80
[11] = endpoint: mean survival time, dose: 400.0 mg/kg/injection, schedule: Q04DX003 (ip), vehicle: saline with Tween-80
[12] = endpoint: mean survival time, dose: 12.5 mg/kg/injection, schedule: Q01DX009 (ip), vehicle: Klucel (hydroxypropylcellulose) (HPC)

Measured: T/C

Nc1nc2ncc(CN(N=O)c3ccc(C(=O)NC(CCC(=O)O)C(=O)O)cc3)nc2c(=O)[nH]1 (stereo not given)
inactive: endpoint: mean survival time, dose: 10.0 mg/kg/injection, schedule: Q01DX009 (ip), vehicle: water 102 % of control | endpoint: mean survival time, dose: 20.0 mg/kg/injection, schedule: Q01DX009 (ip), vehicle: water 101 % of control | endpoint: mean survival time, dose: 40.0 mg/kg/injection, schedule: Q01DX009 (ip), vehicle: water 98 % of control | endpoint: mean survival time, dose: 80.0 mg/kg/injection, schedule: Q01DX009 (ip), vehicle: distilled water + Tween-80 94 % of control | endpoint: mean survival time, dose: 160.0 mg/kg/injection, schedule: Q01DX009 (ip), vehicle: distilled water + Tween-80 90 % of control

CC(=O)Nc1cc(Cl)ccc1C(=O)O
inactive: [1] 96 % of control | [2] 98 % of control | [3] 100 % of control

Cc1cc2c(ccc3c2ccc2cccc(C)c23)c2ccccc12
inactive: [4] 95 % of control | endpoint: mean survival time, dose: 150.0 mg/kg/injection, schedule: Q01DX001 (ip), vehicle: saline 88 % of control | endpoint: mean survival time, dose: 300.0 mg/kg/injection, schedule: Q01DX001 (ip), vehicle: saline 94 % of control

O=C1C=C(CCc2ccccc2)CCC1
inactive: [2] 107 % of control | [3] 107 % of control | [5] 108 % of control

O=S(=O)(Nc1ccc(NS(=O)(=O)c2ccccc2)c(N2CCOCC2)c1)c1ccccc1
inactive: [6] 101 % of control | [7] 101 % of control | [8] 92 % of control

COc1ccc(Cl)cc1[N+](=O)[O-]
inactive: [9] 97 % of control | [10] 94 % of control | [11] 95 % of control

CCOC(=O)CC(=O)c1ccc(C(=O)CC(=O)OCC)cc1
inactive: [6] 89 % of control | [7] 89 % of control | [8] 89 % of control

C/C(=N\NC(N)=S)c1ccc2cc3c(cc2c1)OCO3
inactive: [4] 119 % of control

COc1ccc(CCNC(=O)Cc2ccc3cc(OC)c(OC)cc3c2)cc1OC
inactive: [2] 91 % of control | [9] 95 % of control | [3] 89 % of control | [10] 100 % of control

OCC1OC(c2cnn(-c3ccccc3)n2)C(O)C1O (stereo not given)
inactive: endpoint: median survival time, dose: 12.5 mg/kg/injection, schedule: Q01DX005 (ip), vehicle: water 103 % of control | endpoint: median survival time, dose: 25.0 mg/kg/injection, schedule: Q01DX005 (ip), vehicle: water 103 % of control | endpoint: median survival time, dose: 50.0 mg/kg/injection, schedule: Q01DX005 (ip), vehicle: water 102 % of control | endpoint: median survival time, dose: 100.0 mg/kg/injection, schedule: Q01DX005 (ip), vehicle: water 104 % of control | endpoint: median survival time, dose: 200.0 mg/kg/injection, schedule: Q01DX005 (ip), vehicle: water 102 % of control

CC1(C)CC([NH-])(C(=O)O)CC(C)(C)N1O.CC1(C)CC([NH-])(C(=O)O)CC(C)(C)N1O.[Zn+2]
inactive: endpoint: mean survival time, dose: 12.5 mg/kg/injection, schedule: Q01DX009 (ip), vehicle: saline with Tween-80 96 % of control | endpoint: mean survival time, dose: 25.0 mg/kg/injection, schedule: Q01DX009 (ip), vehicle: saline with Tween-80 96 % of control | [1] 96 % of control | [2] 93 % of control

CCOC(=O)C1(C(=O)OCC)COC(C)(C)OC1
inactive: endpoint: mean survival time, dose: 100.0 mg/kg/injection, schedule: Q01DX009 (ip), vehicle: saline 93 % of control | endpoint: mean survival time, dose: 200.0 mg/kg/injection, schedule: Q01DX009 (ip), vehicle: saline 94 % of control | endpoint: mean survival time, dose: 400.0 mg/kg/injection, schedule: Q01DX009 (ip), vehicle: saline 94 % of control

BrC1CCC([Si](c2ccccc2)(c2ccccc2)c2ccccc2)CC1 (stereo not given)
inactive: [9] 87 % of control | [10] 93 % of control | [11] 93 % of control

O=C(O)CCC(=O)CC1CCCCC1
inactive: [1] 98 % of control | [2] 105 % of control | [3] 98 % of control

CC(C)(C)n1cc(C(=O)c2ccccc2)cc1-c1ccccc1
inactive: [9] 91 % of control | [10] 92 % of control | [11] 86 % of control

Nc1cc2[nH]cnc2c(=O)[nH]1
inactive: endpoint: mean survival time, dose: 12.5 mg/kg/injection, schedule: Q01DX009 (ip), vehicle: suspension in saline 105 % of control | endpoint: mean survival time, dose: 25.0 mg/kg/injection, schedule: Q01DX005 (ip), vehicle: saline 97 % of control and 111 % of control | endpoint: mean survival time, dose: 25.0 mg/kg/injection, schedule: Q01DX009 (ip), vehicle: suspension in saline 113 % of control | endpoint: mean survival time, dose: 50.0 mg/kg/injection, schedule: Q01DX005 (ip), vehicle: saline 114 % of control and 119 % of control | endpoint: mean survival time, dose: 400.0 mg/kg/injection, schedule: Q01DX009 (ip), vehicle: suspension in saline 90 % of control

ClC1CCC(Cl)C2CCC3C(Cl)CCC1[S+]23 (stereo not given)
inactive: endpoint: mean survival time, dose: 3.12 mg/kg/injection, schedule: Q01DX009 (ip), vehicle: Klucel (hydroxypropylcellulose) (HPC) 104 % of control | endpoint: mean survival time, dose: 6.25 mg/kg/injection, schedule: Q01DX009 (ip), vehicle: Klucel (hydroxypropylcellulose) (HPC) 97 % of control | [12] 95 % of control

O=NN(CC(=O)N/N=C\c1ccc(Cl)cc1)CC(=O)N/N=C/c1ccc(Cl)cc1
inactive: [2] 91 % of control | [3] 94 % of control | [5] 96 % of control

O=S(=O)(SC(S(=O)(=O)c1ccccc1)S(=O)(=O)c1ccccc1)c1ccccc1
inactive: [12] 94 % of control and 105 % of control | endpoint: mean survival time, dose: 25.0 mg/kg/injection, schedule: Q01DX009 (ip), vehicle: Klucel (hydroxypropylcellulose) (HPC) 97 % of control and 110 % of control | endpoint: mean survival time, dose: 50.0 mg/kg/injection, schedule: Q01DX009 (ip), vehicle: Klucel (hydroxypropylcellulose) (HPC) 98 % of control and 102 % of control | endpoint: mean survival time, dose: 100.0 mg/kg/injection, schedule: Q01DX009 (ip), vehicle: Klucel (hydroxypropylcellulose) (HPC) 96 % of control | endpoint: mean survival time, dose: 200.0 mg/kg/injection, schedule: Q01DX009 (ip), vehicle: Klucel (hydroxypropylcellulose) (HPC) 92 % of control and 104 % of control | endpoint: mean survival time, dose: 400.0 mg/kg/injection, schedule: Q01DX009 (ip), vehicle: Klucel (hydroxypropylcellulose) (HPC) 113 % of control and 94 % of control | endpoint: median survival time, dose: 100.0 mg/kg/injection, schedule: Q01DX009 (ip), vehicle: Klucel (hydroxypropylcellulose) (HPC) 103 % of control | endpoint: median survival time, dose: 200.0 mg/kg/injection, schedule: Q01DX009 (ip), vehicle: Klucel (hydroxypropylcellulose) (HPC) 102 % of control | endpoint: median survival time, dose: 400.0 mg/kg/injection, schedule: Q01DX009 (ip), vehicle: Klucel (hydroxypropylcellulose) (HPC) 102 % of control | endpoint: median survival time, dose: 800.0 mg/kg/injection, schedule: Q01DX009 (ip), vehicle: Klucel (hydroxypropylcellulose) (HPC) 92 % of control

CO[C@@]12[C@@H]3N[C@@H]3CN1C1=C(C(=O)C(Nc3ccc(O)cc3C)=C(C)C1=O)[C@@H]2COC(N)=O
inactive: endpoint: mean survival time, dose: 1.5 mg/kg/injection, schedule: Q01DX001 (ip), vehicle: water 119 % of control and 111 % of control | endpoint: mean survival time, dose: 3.0 mg/kg/injection, schedule: Q01DX001 (ip), vehicle: water 122 % of control and 111 % of control | endpoint: mean survival time, dose: 6.0 mg/kg/injection, schedule: Q01DX001 (ip), vehicle: water 120 % of control and 122 % of control | endpoint: mean survival time, dose: 12.0 mg/kg/injection, schedule: Q01DX001 (ip), vehicle: water 120 % of control

O=C1OC(c2ccccc2)(c2ccccc2)c2ccc3ccccc3c21
inactive: [9] 96 % of control | [10] 93 % of control | [11] 90 % of control

CCC1(O)C(=O)OCc2c1cc1n(c2=O)Cc2cc3ccc(C=O)cc3nc2-1 (stereo not given)
inactive: endpoint: median survival time, dose: 4.0 mg/kg/injection, schedule: Q04DX002 (ip), vehicle: saline with Tween-80 98 % of control | endpoint: median survival time, dose: 8.0 mg/kg/injection, schedule: Q04DX002 (ip), vehicle: saline with Tween-80 96 % of control | endpoint: median survival time, dose: 16.0 mg/kg/injection, schedule: Q04DX002 (ip), vehicle: saline with Tween-80 98 % of control | endpoint: median survival time, dose: 32.0 mg/kg/injection, schedule: Q04DX002 (ip), vehicle: saline with Tween-80 102 % of control

CCCCCCCCCCCSSCCCCCCCCCCC
inactive: endpoint: mean survival time, dose: 100.0 mg/kg/injection, schedule: Q01DX009 (ip), vehicle: other 101 % of control | endpoint: mean survival time, dose: 200.0 mg/kg/injection, schedule: Q01DX009 (ip), vehicle: other 100 % of control | endpoint: mean survival time, dose: 400.0 mg/kg/injection, schedule: Q01DX009 (ip), vehicle: other 111 % of control

COc1ccccc1NC(=O)Oc1c(C)cccc1C
inactive: endpoint: mean survival time, dose: 100.0 mg/kg/injection, schedule: Q04DX002 (ip), vehicle: saline with Tween-80 92 % of control | endpoint: mean survival time, dose: 200.0 mg/kg/injection, schedule: Q04DX002 (ip), vehicle: saline with Tween-80 100 % of control | endpoint: mean survival time, dose: 400.0 mg/kg/injection, schedule: Q04DX002 (ip), vehicle: saline with Tween-80 111 % of control

COc1cc(OC)c(NC(=O)OCCON2CCNC2=O)cc1Cl
inactive: [1] 90 % of control | [2] 90 % of control | [3] 97 % of control
